In paper PMC9599717, “The Multicellular Effects of VDAC1 N-Terminal-Derived Peptide” (Biomolecules, 2022):

Key:
[1] = system: U-87MG (human glioblastoma); assay: Cell death by PI staining and flow cytometry (FACS), U-87MG; format: cell-based; details: U-87MG cells
Procedure: (§1) MEC-1 cells were incubated in a serum-free medium with various concentrations of VDAC1-based peptides for 1.5 h at room temperature (RT), collected by centrifugation, washed with phosphate-buffered saline (PBS), and analyzed for cell death. Adherent cancer cells were seeded in culture plates and allowed to adhere overnight in a sterile cell culture incubation chamber maintained at 37 °C and 5% CO2. The next day, media was removed from the plates, and cells were treated with various concentrations of VDAC1-based peptides for the indicated time in serum-free Dulbecco’s Modified Eagle Medium (DMEM) with and without DMSO (final 0.15%) as a control for 6 h at 37 °C and 5% CO2. Cells were trypsinized, centrifuged (1500× g, 5 min), and washed with PBS.
Cell death was analyzed by the propidium iodide (PI) staining, followed by flow cytometry with the iCyt sy3200 Benchtop Cell Sorter/Analyzer and analysis with EC800 v 1.3.7 software (Sony Biotechnology Inc., San Jose, CA, USA). Apoptosis was analyzed by PI and annexin V-FITC staining, which was carried out according to the manufacturer’s instructions with minor modifications. U-87MG cells, untreated (control) or treated with various concentrations of VDAC1-based peptides, were harvested and washed once with binding buffer (10 mM HEPES/NaOH, pH 7.4, 140 mM NaCl, and 2.5 mM CaCl2). […] Next, cells were washed and PI (6.25 μg/mL), was added immediately before flow cytometry At least 10,000 events were collected, recorded on a dot plot, and analyzed by flow cytometry.
Figure 1 VDAC1-based peptides induced cell death in various cancer cell lines. […] (E) Human cervix adenocarcinoma (HeLa) (▲) and human glioblastoma (U-87MG) (●, ○) cell lines were incubated 6 h with the indicated concentrations of D-Δ(1-18)N-Ter-Antp peptide and analyzed for cell death PI staining and flow cytometry (o,▲) or FITC–annexin V/PI staining and flow cytometry analysis (●). (F) U-87MG cells were treated with 10 µM (○), 20 µM (●) or without (Δ) of D-Δ(1-18)N-Ter-Antp peptide for the indicated times, and cell death was analyzed by PI staining and flow cytometry. […]

[2] = system: HeLa (human cervix adenocarcinoma); assay: Cell death by PI staining and flow cytometry (FACS), HeLa; format: cell-based; details: HeLa cells
Procedure: as §1
Cell death was analyzed by the propidium iodide (PI) staining, followed by flow cytometry with the iCyt sy3200 Benchtop Cell Sorter/Analyzer and analysis with EC800 v 1.3.7 software (Sony Biotechnology Inc., San Jose, CA, USA). Apoptosis was analyzed by PI and annexin V-FITC staining, which was carried out according to the manufacturer’s instructions with minor modifications. […] Next, cells were washed and PI (6.25 μg/mL), was added immediately before flow cytometry At least 10,000 events were collected, recorded on a dot plot, and analyzed by flow cytometry. […]

vinculin in U-87MG cells = assay: Vinculin immunofluorescence staining intensity; format: cell-based, human
Procedure: Cells were seeded on sterile glass coverslips in 12-well plates and cultured until reaching about 80% confluence. Cells were treated with D-Δ(1-18)N-Ter-Antp peptide in serum-free DMEM for 24 h. Then cells were washed with PBS, fixed in 4% paraformaldehyde for 20 min, washed three times with PBS, permeabilized with 0.3% Triton X-100 in PBS, and blocked, in blocking buffer (10% Normal goat serum, 1% fatty acid-free bovine serum albumin [BSA], 0.1% TritonX100 diluted in PBS) for 2 h. Cells were incubated overnight at 4 ℃ with the appropriate primary antibodies (Table S1), followed by three washes with PBS. […]
Quantitation of protein levels, as reflected in the staining intensity, was analyzed in the whole area of the sections using Image J software.
Figure 2 D-Δ(1-18)N-Ter-Antp-induced changes in cell morphology and cell membrane permeability. (A,B) U-87MG cells were treated with the indicated concentrations of D-Δ(1-18)N-Ter-Antp peptide for 16 h, and cell morphology was monitored by light microscope (A). Quantification of cell size (B). (C,D) U-87MG cells were untreated or treated with 10 μM of D-Δ(1-18)N-Ter-Antp peptide or N-TerΔ(21-26)-Antp for 24 h, and cell morphology was monitored by light microscope (C). Quantification of cell size (D). […] Quantification of vinculin staining intensity (F). […]

[3] = 6 h incubation, serum-free medium, PI staining and FACS, read-out: IC50, peptide concentration required for half-maximal cell death activity

Question: With “19-FTKGYGFGL-26- RQIKIWFQNRRMKWKK [D-Δ(1-18)N-Ter-Antp]” as the substance, how does the “Cell death in time course” value ([1]; 3-h incubation, 10 or 20 µM tested (Figure 1F), PI staining) read?
Answer: about 70%

Question: And the “Maximal cell death (at the concentration for maximal cell death)” value ([1]; 6 h)?
Answer: 70%

Question: And the IC50 [1, 3]?
Answer: 6 µM

Question: What about the “Maximal cell death (at the concentration for maximal cell death)” value ([2]; 6 h) of the same substance?
Answer: 100%

Question: And the IC50 [2, 3]?
Answer: 2 µM

Question: What about the “Increase of vinculin expression compared to untreated cells” value (vinculin in U-87MG cells) of the same substance?
Answer: 4 fold
